Values joined by “and” are separate entries in the source; they are usually repeats but may differ in a detail not shown here. Equal values may be shown once. Read-outs that look alike come from different tables or passages of the source.
Experiments:
[1] = test system: Colon 38 tumour; assay: Colon 38 tumour growth delay, oral DMXAA (Experiments I and II); format: in vivo, C57B1/6 mice; details: for mice cured completely: 30+15+15 mg/kg orally at 0, 4, 8 h
Description: C57B1/6 mice from the Animal Resource Unit, University of Auckland, were bred and housed under conditions of constant temperature and humidity, with sterile bedding and food, according to institutional ethical guidelines. All mice were aged between 8 and 12 weeks.
DMXAA was synthesized as the sodium salt (Rewcastle et al (1990) Journal of National Cancer Institute 82:528-529). DMXAA sodium salt was dissolved in sterile water and was administered orally by gavage.
Colon 38 tumour fragments (˜1 mm^3) were implanted subcutaneously (s.c.) in the left flank of anaesthetized (sodium pentobarbital, 81 mg/kg) mice. The experiments were initiated when tumours were approximately 3-4 mm (approximately 20 mg mass) in diameter. Tumour-bearing mice were treated with drugs according to the administration schedule described before, and the tumours measured using calipers, three times weekly thereafter. Tumour volumes were calculated as O.52a^2b, where a and b are the minor and major axes of the tumour, respectively. For graphical representation the arithmetic means were calculated for each time point, counting cured tumours as zero volume.
Two groups of 5 mice were implanted with tumours. The treatment group received DMXAA according to the schedule shown, the control group received no DMXAA. The individual mice in each group were not marked, and so any one line of the spreadsheet data shown in Table 1 could be from any individual mouse of a particular group.
The data were normalised, to enable plotting of the average tumour growth beginning from a relative size of 1 (see FIG. 1).
This example was performed using four groups of mice. Group 1 (control, n=5) received no treatment. Group 2 (n=5) received two 15 mg/kg doses of DMXAA. Group 3 (n=5) received a single 30 mg/kg dose of DMXAA. Group 4 (n=6) received three doses of DMXAA in concentrations of 30+15+15 mg/kg. In this experiment tumours were all 14 mm^3 at the start of the experiment. Data were normalised by division by 14 to give size relative to initial size.
The tumour growth delay experiment was conducted using 2 drug regimes: untreated controls (n=5) and oral DMXAA (n=5) administered in 3 doses. The first dose (30 mg/kg), was administered at t=0 hours followed by two lower doses each of 15 mg/kg at t=4 hours and t=8 hours respectively. Tumour size was measured thrice weekly and the results normalised as described above. The results are shown in Table 1 (raw data), Table 2 (normalised data) and FIG. 1, Expt. I (plotted as a graph).
In this example, the tumour growth delay experiment was conducted using 4 drug regimes: untreated controls (Group 1, n=5); two 15 mg/kg doses of DMXAA separated by a 4 hour interval (Group 2, n=5); a single 30 mg/kg dose of DMXAA (Group 3, n=5); three doses of DMXAA in concentrations of 30+15+15 mg/kg administered at t=0, 4 and 8 hours respectively (Group 4, n=6). The 30 mg/kg dose is the maximum tolerated single dose Zhao et al (Cancer Chemother Pharmacol. 2002 January; 49(1):20-6). Tumour size was measured thrice weekly and the results normalised as described above. The results are shown in Table 3 (raw data), Table 4 (normalised data) and FIG. 1, Expt. II (plotted as a graph).

[2] = test system: HT29 human colon cancer cells; assay: HT29 human colon carcinoma xenograft, oral dosing (Experiment 3); format: in vivo; details: HT29 xenograft in nude mice; 28 mg/kg oral, or 28 + 15 + 15 mg/kg at 0, 4, 8 h
Description: Nude mice were implanted with 5×10^6 HT29 human colon cancer cells, subcutaneously. […] Tumours were then measured using callipers every 2-3 days and volumes calculated. Comparative tumour growth curves are plotted with respect to those at the onset of treatment (relative tumour volume).

[3] = test system: tumour; details: Zhao et al, cited from earlier work
[4] = oral; Zhao et al; cited from earlier work
[5] = test system: tumour blood flow; details: Phase I clinical trials; well-tolerated doses; cited from earlier work

Question: For Cc1ccc2c(=O)c3cccc(CC(=O)O)c3oc2c1C [DMXAA, 5,6-dimethylxanthenone-4-acetic acid], which “side effects of multiple dose strategy” value ([1]; 30+15+15 mg/kg orally) is on record?
Answer: without the serious side effects

Question: And the mice cured completely ([1]; Expt I, within 24 days)?
Answer: 4/5

Question: And the Tumor volume ([1]; Expt I, 30+15+15 mg/kg orally at 4 h intervals, 0 day, individual mice, 15 mg/kg)?
Answer: 6.3 mm^3 and 18.8 mm^3 (2×) and 14.1 mm^3 (2×)

Question: What about the Tumor volume ([1]; Expt II, 30 mg/kg orally single dose, 0 day) of the same molecule?
Answer: 14.0 mm^3

Question: What about the “tumour growth over time-course” value ([1]; Expt II, 2×15 mg/kg oral doses, 4 h interval) of the same molecule?
Answer: tumours continued to grow

Question: What about the Tumor volume ([1]; Expt II, 15 − 15 mg/kg orally, 4 h interval, 0 day) of the same molecule?
Answer: 14.0 mm^3

Question: And the mice cured completely ([1]; Expt II, within 17 days)?
Answer: 6/6

Question: What about the Tumor volume ([1]; Expt II, 30 − 16 − 15 mg/kg orally, 0 day) of the same molecule?
Answer: 14.0 mm^3

Question: And the Tumor volume ([1]; Expt II, 30 − 16 − 15 mg/kg orally, 17 day)?
Answer: 0.0 mm^3

Question: And the “Normalised tumour size (relative to initial size)” value ([1]; Expt II, oral 30 mg/kg single dose, day 0)?
Answer: 1

Question: What about the “Normalised tumour size (relative to initial size)” value ([1]; Expt II, oral 15 − 15 mg/kg, day 0) of the same molecule?
Answer: 1

Question: What about the “Normalised tumour size (relative to initial size)” value ([1]; Expt II, oral 30 − 15 − 15 mg/kg, day 0) of the same molecule?
Answer: 1

Question: What about the “Normalised tumour size (relative to initial size)” value ([1]; Expt II, oral 30 − 15 − 15 mg/kg, day 17) of the same molecule?
Answer: 0

Question: What about the “tumour growth over time-course” value ([1]; Expt II, single 30 mg/kg oral dose) of the same molecule?
Answer: tumours continued to grow

Question: And the “antitumour activity by the oral route” value [2]?
Answer: induces antitumour activity

Question: What about the cures ([3]; intraperitoneal administration) of the same molecule?
Answer: 40%

Question: What about the cures ([3]; single dose orally administered) of the same molecule?
Answer: no cures

Question: And the “maximum tolerated single dose” value [4]?
Answer: 30 mg/kg

Question: What about the “tumour blood flow (dynamic MRI)” value [5] of the same molecule?
Answer: significant reduction in tumour blood flow

Reference: patent publication US7585893B2, “Anti-cancer composition comprising DMXAA or related compound” (Cancer Research Technology Limited, priority 2002, dated 2009)
